# Measured values from patent US9375436B2, “Androgen treatment in females” (priority 2004, dated 2016).
# Legend:
# [1] = test system: women with diminished ovarian reserve; assay: AMH as reflection of ovarian reserve after DHEA supplementation (Examples 9 and 12); assay type: in vivo, human
# Description: The study is a cross-sectional analysis of 120 consecutive women with DOR in whom AMH levels were evaluated as a reflection of OR. They presented during 2007/8 to our center for initial infertility consultation. First AMH levels obtained were used for INITIAL analysis. Post DHEA initiation, exposure to the supplement ranged from 34 to 119 days (mean 73±27 days). Women with two or more consecutive AMH levels comprised patients in the longitudinal study evaluation of OR after initiation of DHEA supplementation. […]
# FSH and estradiol were evaluated by standard enzyme-linked immunoabsorbent assay (ELISA; AIA-600II, Tohso, Tokyo, Japan). […] Theoretical sensitivity, or minimum detection limit, as calculated by interpolation of the mean plus two standard deviations (SD) of eight replicates of the 0 ng/ml MIS/AMH Standard, is 0.006 ng/ml. […]
# Data are shown as means±standard deviation (SD) or as raw numbers and percentages. […] Demographic and biochemical data were analyzed with paired or unpaired Student's t-test. […]
# The study is a cross-sectional and longitudinal analysis of 120 consecutive women with diminished ovarian reserve, in whom AMH concentrations were evaluated as a reflection of ovarian reserve. […]
# FSH and oestradiol were evaluated by standard enzyme-linked immunoabsorbent assay (ELISA; AIA-600II, Tohso, Tokyo, Japan). […]
# [2] = test system: DOR patients; assay: Pregnancy outcome at various AMH levels under DHEA supplementation; assay type: in vivo, human
# From the text: Another study from our center further supports these conclusions (FIG. 22). FIG. 22 is a graph showing spontaneous pregnancy loss in spontaneous and IVF pregnancies at various AMH levels. The figure depicts at various AMH levels in the left column IVF pregnancies (IVF), as previously reported (26), and in the right column spontaneously conceived pregnancies (SP). Each column represents 100% of all pregnancies established, separated for live births (black section), voluntary termination of pregnancy (TOP; usually for aneuploidy) and spontaneous miscarriages (SAB).
# In that study (FIG. 22), we investigated live birth rates after IVF at extremely low anti-Müllerian hormone (AMH) levels and were surprised how low miscarriage rates were between non-detectable levels of AMH and 0.4 ng/mL. Losses then increased between AMH 0.41-1.05 ng/mL to over 50 percent, the expected rate in DOR patients, only to fall, once again, to very low levels above AMH 1.05 ng/mL. […]
# AMH<1.05 ng/mL represents more severe DOR. […] Chances of clinical pregnancies, miscarriages, terminations of pregnancy, and viable deliveries were then determined among severe DOR patients, depending on AMH levels (below detection, <0.1 ng/mL, 0.1-0.4 ng/mL, 0.41-0.8 ng/mL, 0.81-1.05 ng/mL) and with milder DOR (>1.06 ng/mL). […]
structure (smiles),measurement,setting,value
"C[C@]12CC[C@H](O)CC1=CC[C@@H]1[C@@H]2CC[C@]2(C)C(=O)CC[C@@H]12 [DHEA, Dehydroepiandrosterone]",clinical pregnancy rate,"[1]; 55 women who reached IVF, 13 conceived",23.64%
same,AMH at highest measured peak,"[1]; longitudinal evaluation, n=55, baseline before DHEA 0.22±0.22, DHEA 25 mg TID",0.35 ± 0.03 ng/mL
same,chance of live birth per treatment cycle,"[2]; DOR patients under DHEA supplementation, up to AMH 1.05 ng/mL",approximately 5%
same,pregnancy chance per IVF cycle,"[2]; under DHEA supplementation, absence of detectable AMH",~5%
